From patent publication US5126356A, “Piperidine compounds” (Adir et Compagnie, priority 1989, dated 1992) come the findings set out here.

Test [1] deals with T1, type L calcium channels (Oryctolagus cuniculus, UniProt P07293).
T1 construct: microsomal fractions enriched with type L calcium channels; from tissue; host or cells: microsomal fractions
Briefly: Binding: displacement of [3H] PN 200-110 at the Ca2+ channel. Background: Loss of bound radioactivity is the signal in a displacement assay; it reports binding, not function.

Test [2] deals with Dopamine D1 (Homo sapiens, UniProt P21728). Kind of test: Binding to neurotransmitter receptors: D1 ([3H] SCH 23390). The following applies: read-out: K0.5.
Test [3] has as its target Alpha adrenergic α1. Kind of test: Binding to neurotransmitter receptors: alpha1 adrenergic ([3H] Prazosin). The following applies: α1, [3H] Prazosin; read-out: K0.5.
Test [4] has as its target Alpha adrenergic α2. Kind of test: Binding to neurotransmitter receptors: alpha2 adrenergic ([3H] Rauwolscine). The following applies: α2, [3H] Rauwolscine; read-out: K0.5.
Test [5] addresses T2, 5HT1A (Homo sapiens, UniProt P08908).
T2 sequence (P08908 1-422): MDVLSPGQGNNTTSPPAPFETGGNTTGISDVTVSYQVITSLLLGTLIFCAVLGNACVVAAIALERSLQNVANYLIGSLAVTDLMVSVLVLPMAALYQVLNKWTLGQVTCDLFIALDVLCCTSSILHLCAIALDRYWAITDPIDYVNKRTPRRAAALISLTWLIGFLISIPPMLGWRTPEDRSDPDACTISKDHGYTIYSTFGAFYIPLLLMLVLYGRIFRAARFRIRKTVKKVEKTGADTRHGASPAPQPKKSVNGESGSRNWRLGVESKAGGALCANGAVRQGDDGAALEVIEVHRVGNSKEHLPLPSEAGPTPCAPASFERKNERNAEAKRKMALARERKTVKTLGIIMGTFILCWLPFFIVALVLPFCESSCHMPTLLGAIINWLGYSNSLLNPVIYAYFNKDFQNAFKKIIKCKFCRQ
Briefly: Binding to neurotransmitter receptors: 5HT1A ([3H] 8 OH DPAT). The note with it: read-out: K0.5.

In test [6] the target is Dopamine D2 (Homo sapiens, UniProt P14416). Briefly: Binding to neurotransmitter receptors: D2 ([3H] 205 501). The note with it: read-out: K0.5.
Test [7] deals with T3, slow calcium channels (Rattus norvegicus, UniProt P22002).
T3 construct: cell lines from the aorta of newly born rats; host or cells: A7 r5
Briefly: Electrophysiology, whole cell patch clamp on A7 r5, slow calcium entry flow. It is filed as cell-based. The method, then: b) A7 r5 : cell lines from the aorta of newly born rats (ATCC No. CRL 1444), cultivated under the conditions indicated by the American Type Culture Collection (ATCC).
The studies were carried out on the A7 r5 cell line using the whole cell patch-clamp technique described by HAMILL O., MARTY A., WEHER E., SAKMANN B., SIGWORTH F. F., Improved patch clamp techniques for high resolution current recording from cells and cell from membrane patches. Pflugers Arch., 391, 85-100 (1981).

Test [8] relates to neurotransmitter receptors (5HT, α,β). Kind of test: Effect on neurotransmitter receptors (panel as a whole). The note with it: exception of the dopaminergic receptors. It is filed as binding. The method, then: The competition experiments between the different radioligands and the reference molecules are carried out under the standard binding conditions according to O'BRIEN R. A., Receptor binding in drug research. In: Clinical Pharmacology, vol. 5, DEKKER M. Inc., New York and Basle (1986). In all cases, after the required linkage time, the bound radioactivity is separated from the free component by in vacuo filtration on a GF/C filter.

The test system of test [9] is beagle dogs. Briefly: Anti-ischaemic activity, Protocol 1: tight coronary stenosis in anaesthetised beagle dogs. It counts as in vivo, dog. The method, then:
The studies are carried out on beagle dogs weighing from 9 to 12 kg which have been anaesthetised with pentobarbital sodium 30 mg/kg i.v., intubated and ventilated, and subjected to a thoracotomy at the 5th left intercostal space.
An electromagnetic ring connected to a Gould SP 2202 electromagnetic flow meter is placed around the circumflex branch of the left coronary artery, and an inflatable balloon is placed just downstream of that ring for the production of coronary stenoses under the control of the coronary output.
Piezoelectric crystals (5 MHz) connected to a Triton sonomicrometer are implanted in the subendocardium of the left ventricular wall, in an area that is to become ischaemic, for measuring local myocardial contractility; epicardial electrodes are placed in the same area for recording the epicardial electrocardiogram.
Myocardial ischaemia is induced by tight coronary stenosis that reduces coronary output by about 70%.
The same coronary stenosis, the effects of which are reversible and reproducible, is produced in the same animal for two periods of 10 minutes, separated by a recovery period of 45 minutes.
Treatments are administered intravenously 2 minutes after coronary stenosis:
injection of solvent after the first coronary stenosis, which serves as control,
injection of the test product after the second coronary stenosis.
Myocardial contractility is evaluated by the proportion of systolic shortening of the lengths of the segments between the piezoelectric crystals.
Hypokinesia in the ischaemic area is expressed as percentage variation relative to the contractility measured in the control period.
Modification of the epicardial ECG in the ischaemic area consists in raising the epicardial ST segment measured in millivolts (mV).

Test [10] deals with T4, type L Ca^2+ channel (Rattus norvegicus, UniProt P22002).
T4 construct: cell lines from the aorta of newly born rats; host or cells: A7 r5
Kind of test: Inhibition of 45Ca2+ influx through the Ca2+ channel in A7 r5 cells. It counts as cell-based.

Test [11] has as its system cardiac cells. Kind of test: Protection of cardiac cells from necrosis induced by intracellular acidosis (αHBDH release). It is filed as cell-based, rat. The method, then:
a) Cardiac cells: the cardiac cells are prepared from the hearts of newly born (3 days) Wistar rats in accordance with the technique of RENAUD JF., MEAUX JP., ROMEY G., SCHMID A., LAZDUNSKI M., Activation of the voltage-dependent Ca^2+ channels in rat heart cells by dihydropyridine derivative--Biochem. Biophys. Res. Commun., 125, 405-412 (1984).
The cardiomyocytes are isolated from the ventricles by enzymatic dissociation and cultured at 185,000 cells/cm^2. The cells are kept at 37° C. under an air/CO2 atmosphere (95 V/5 V) saturated with water. The cardiomyocytes are used between the 3rd and 8th day following culturing.
Intracellular acidosis is induced in accordance with the conditions published by RENAUD JF., Internal pH Na^+ and Ca^2+ regulation by trimetazidine during cardiac cell acidosis. Cardiovasc. Drugs and Ther., 1, 667-686 (1988) in the presence or absence of the products to be tested. Cellular necrosis is evaluated by measuring by spectrophotometry using the Boerhinger 124800 kit the kinetics of the release of a cytosolic enzyme α-hydroxybutyrate dehydrogenase (αHBDH) into the extracellular medium.
The signal measured corresponds to the amplitude of the necrosis induced by the acidosis. The values are the means ±SD. The number of experiments is indicated in parentheses.

T1 sequence (P07293 whole entry): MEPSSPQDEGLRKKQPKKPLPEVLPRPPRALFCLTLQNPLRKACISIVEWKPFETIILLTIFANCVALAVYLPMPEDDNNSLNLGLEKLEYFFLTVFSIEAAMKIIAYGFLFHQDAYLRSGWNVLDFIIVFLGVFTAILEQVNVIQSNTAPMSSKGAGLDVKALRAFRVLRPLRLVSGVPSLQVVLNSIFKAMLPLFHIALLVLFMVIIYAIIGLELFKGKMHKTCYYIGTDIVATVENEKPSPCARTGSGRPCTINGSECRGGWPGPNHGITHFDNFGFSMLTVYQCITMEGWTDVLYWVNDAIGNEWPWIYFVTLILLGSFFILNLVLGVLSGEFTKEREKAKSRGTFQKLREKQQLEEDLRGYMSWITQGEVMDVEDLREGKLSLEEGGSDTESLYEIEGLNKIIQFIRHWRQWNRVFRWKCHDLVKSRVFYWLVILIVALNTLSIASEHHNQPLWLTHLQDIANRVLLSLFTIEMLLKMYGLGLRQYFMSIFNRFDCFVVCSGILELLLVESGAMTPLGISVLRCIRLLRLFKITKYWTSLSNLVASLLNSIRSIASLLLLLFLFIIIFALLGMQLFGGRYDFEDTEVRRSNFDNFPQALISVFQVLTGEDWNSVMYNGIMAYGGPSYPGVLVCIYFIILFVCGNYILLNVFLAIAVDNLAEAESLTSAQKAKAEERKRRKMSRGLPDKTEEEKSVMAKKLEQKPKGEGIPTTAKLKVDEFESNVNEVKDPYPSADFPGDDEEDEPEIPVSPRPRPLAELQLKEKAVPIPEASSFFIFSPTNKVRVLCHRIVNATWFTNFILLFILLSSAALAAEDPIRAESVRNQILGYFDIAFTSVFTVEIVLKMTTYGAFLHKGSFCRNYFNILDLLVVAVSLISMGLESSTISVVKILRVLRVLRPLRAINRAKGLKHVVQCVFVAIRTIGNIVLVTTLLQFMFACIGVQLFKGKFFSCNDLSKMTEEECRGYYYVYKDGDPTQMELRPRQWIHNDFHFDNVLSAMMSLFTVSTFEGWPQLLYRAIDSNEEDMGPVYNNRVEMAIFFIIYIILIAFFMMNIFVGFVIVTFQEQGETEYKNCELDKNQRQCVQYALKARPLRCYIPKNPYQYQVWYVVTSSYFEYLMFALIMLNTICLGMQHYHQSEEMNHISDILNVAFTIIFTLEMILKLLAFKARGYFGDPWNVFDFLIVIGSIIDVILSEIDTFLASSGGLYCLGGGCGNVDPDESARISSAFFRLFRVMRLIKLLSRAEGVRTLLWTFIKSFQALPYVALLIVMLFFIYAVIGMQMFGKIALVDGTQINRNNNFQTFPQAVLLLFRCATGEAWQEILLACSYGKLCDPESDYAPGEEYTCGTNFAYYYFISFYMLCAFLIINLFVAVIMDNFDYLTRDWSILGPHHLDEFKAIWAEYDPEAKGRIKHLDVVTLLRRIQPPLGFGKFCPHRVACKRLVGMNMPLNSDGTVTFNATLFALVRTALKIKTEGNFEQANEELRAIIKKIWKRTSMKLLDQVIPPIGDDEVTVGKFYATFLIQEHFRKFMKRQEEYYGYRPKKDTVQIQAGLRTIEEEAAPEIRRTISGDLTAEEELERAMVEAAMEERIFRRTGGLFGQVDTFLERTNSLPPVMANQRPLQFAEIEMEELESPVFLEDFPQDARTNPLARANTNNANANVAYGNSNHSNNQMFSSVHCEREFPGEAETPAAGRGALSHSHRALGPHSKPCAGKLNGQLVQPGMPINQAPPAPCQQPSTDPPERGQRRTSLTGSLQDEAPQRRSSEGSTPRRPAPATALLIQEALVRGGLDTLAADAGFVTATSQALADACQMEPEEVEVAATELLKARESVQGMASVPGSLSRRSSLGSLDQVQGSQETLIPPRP
T1 sequence (P13806 27-960 partner limits assumed): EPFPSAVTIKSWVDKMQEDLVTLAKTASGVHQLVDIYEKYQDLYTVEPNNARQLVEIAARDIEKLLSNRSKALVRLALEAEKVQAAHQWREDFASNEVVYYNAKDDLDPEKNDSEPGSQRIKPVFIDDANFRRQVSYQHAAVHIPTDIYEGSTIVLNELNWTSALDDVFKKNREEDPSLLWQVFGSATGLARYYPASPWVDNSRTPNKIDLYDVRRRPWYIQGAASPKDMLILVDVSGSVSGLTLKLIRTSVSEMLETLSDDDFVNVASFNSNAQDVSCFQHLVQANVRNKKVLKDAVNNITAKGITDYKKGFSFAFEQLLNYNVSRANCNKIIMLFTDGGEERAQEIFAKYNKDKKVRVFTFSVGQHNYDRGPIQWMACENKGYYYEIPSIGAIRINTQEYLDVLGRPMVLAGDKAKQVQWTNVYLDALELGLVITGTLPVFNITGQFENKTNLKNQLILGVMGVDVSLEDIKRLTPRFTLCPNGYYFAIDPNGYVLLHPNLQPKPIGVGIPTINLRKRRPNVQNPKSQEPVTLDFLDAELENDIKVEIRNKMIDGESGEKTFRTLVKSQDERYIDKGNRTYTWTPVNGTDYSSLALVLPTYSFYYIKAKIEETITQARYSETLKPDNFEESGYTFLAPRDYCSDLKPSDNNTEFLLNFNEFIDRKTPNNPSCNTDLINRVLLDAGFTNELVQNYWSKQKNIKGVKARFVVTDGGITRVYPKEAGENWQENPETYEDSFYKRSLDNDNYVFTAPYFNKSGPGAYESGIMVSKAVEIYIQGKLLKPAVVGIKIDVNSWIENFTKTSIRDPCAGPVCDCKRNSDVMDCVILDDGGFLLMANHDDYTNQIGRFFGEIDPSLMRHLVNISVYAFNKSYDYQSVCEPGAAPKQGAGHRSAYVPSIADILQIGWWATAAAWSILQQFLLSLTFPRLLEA
T1 sequence (P13806 961-1106 partner limits assumed): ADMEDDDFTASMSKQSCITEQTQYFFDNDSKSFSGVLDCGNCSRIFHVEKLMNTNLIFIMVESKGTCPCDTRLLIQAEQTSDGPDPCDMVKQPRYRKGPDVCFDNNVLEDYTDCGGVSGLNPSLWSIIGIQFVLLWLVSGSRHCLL
T1 sequence (P19517 whole entry partner): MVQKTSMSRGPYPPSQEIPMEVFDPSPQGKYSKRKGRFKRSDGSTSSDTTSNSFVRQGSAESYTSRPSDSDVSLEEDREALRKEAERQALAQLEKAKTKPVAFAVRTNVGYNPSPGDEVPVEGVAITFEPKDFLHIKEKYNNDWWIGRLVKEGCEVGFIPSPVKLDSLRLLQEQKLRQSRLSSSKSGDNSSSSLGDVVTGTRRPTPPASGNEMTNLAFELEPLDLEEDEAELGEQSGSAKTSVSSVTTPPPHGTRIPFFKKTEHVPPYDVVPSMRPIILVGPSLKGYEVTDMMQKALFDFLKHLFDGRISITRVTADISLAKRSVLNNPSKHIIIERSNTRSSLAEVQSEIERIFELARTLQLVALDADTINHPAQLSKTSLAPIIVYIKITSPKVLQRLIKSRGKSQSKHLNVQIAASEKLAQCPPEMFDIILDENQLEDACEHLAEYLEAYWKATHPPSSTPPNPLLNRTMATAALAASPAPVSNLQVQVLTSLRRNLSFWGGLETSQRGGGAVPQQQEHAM
T1 sequence (P19518 whole entry partner): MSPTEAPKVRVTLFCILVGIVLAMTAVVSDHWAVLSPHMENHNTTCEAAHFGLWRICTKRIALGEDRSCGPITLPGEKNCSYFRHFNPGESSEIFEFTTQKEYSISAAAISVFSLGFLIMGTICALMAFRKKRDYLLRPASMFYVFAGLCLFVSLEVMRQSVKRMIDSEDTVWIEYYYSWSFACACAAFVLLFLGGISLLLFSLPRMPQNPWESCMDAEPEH
Sequence of Dopamine D2 (P14416 whole entry): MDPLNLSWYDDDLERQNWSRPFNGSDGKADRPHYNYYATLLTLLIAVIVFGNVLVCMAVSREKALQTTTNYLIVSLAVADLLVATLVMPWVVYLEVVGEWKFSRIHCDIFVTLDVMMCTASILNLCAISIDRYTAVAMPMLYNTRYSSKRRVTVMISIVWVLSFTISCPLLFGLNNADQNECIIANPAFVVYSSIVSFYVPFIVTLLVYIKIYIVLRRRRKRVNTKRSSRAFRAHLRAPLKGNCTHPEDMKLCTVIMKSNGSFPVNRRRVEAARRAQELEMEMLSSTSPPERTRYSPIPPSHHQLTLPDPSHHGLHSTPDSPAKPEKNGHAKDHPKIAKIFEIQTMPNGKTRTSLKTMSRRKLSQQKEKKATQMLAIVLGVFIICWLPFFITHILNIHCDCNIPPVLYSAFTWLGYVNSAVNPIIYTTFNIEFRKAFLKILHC
Sequence of Dopamine D1 (P21728 whole entry): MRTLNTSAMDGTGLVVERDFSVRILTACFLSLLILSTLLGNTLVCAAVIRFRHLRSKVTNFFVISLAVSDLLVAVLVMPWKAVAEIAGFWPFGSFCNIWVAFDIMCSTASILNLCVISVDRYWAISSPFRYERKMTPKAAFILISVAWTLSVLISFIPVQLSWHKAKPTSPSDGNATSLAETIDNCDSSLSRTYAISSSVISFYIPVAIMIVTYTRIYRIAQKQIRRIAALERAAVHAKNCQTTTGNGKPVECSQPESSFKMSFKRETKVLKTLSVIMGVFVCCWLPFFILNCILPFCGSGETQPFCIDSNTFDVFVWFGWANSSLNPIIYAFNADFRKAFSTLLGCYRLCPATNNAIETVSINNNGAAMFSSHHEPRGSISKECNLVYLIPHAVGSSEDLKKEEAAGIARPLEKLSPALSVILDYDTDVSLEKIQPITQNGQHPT

Broadly, the EC50 is the concentration that produces a half-maximal response. For `COc1ccc(CSC2CCN(CC=Cc3ccccc3)CC2)c(OC)c1OC` [Example 1, 4-(2,3,4-trimethoxybenzylthio)-1-cinnamylpiperidine], the “binding to the slow Ca2+ channel (in words)” value in test [1] is on record as “binds to the receptors of the slow Ca^2+ channel”. Also, the IC50 in test [1] ([3H] PN 200-110, read-out: K0.5 (50% of specifically fixed radioactivity displaced)) amounted to 1000 nM; in test [2], 300 nM; in test [3], 2000 nM; in test [4], 900 nM; in [5], 3000 nM; in test [6], 300 nM. The IC50 in [10] (45Ca2+ influx, A7 r5 cells, read-out: K0.5 (50% of 45Ca2+ influx inhibited)) was 3000 nM. For the same compound, in test [7], the “inhibition of slow calcium channels / Ca2+ entry flow (in words)” value is recorded as “inhibition of the Ca^2+ entry flow in a dose-dependent manner”. Also, in test [7] (whole cell patch clamp, A7 r5, read-out: semi-effect (EC50), inhibition of the slow calcium entry flow), the EC50 amounted to 10000 nM. In test [8], the “interaction with neurotransmitter receptors (in words)” value was “interacts in a relatively non-specific manner and with low affinity with neurotransmitter receptors (5HT, α,β) with the exception of the dopaminergic receptors”. In addition, the Contractility delta % in [9] (10 minutes after treatment, 1 mg/kg i.v., solvent -44.5) is reported as -24.3%; in test [9] (Stenosis (before treatment), 1 mg/kg i.v. group, solvent -45.8) it was -45%. The “Epicardial ST delta mV” value in test [9] (10 minutes after treatment, 1 mg/kg, solvent +4) is reported as “+2 mV”; in test [9] (Stenosis (before treatment), 1 mg/kg group, solvent +4.5), “+4.5 mV”. The “anti-ischaemic effect (in words)” value in [9] (intravenous, Protocols 1 and 2) was “markedly reduces both preventively and curatively the electrocardiographic modifications and the modifications of myocardial contractility induced by ischaemia”. Further, the “inhibition of Ca2+ influx (in words)” value in test [10] is “inhibition of the influx of Ca^2+”. Besides, the activity at 0.3 µM in test [11] (Rattus norvegicus, Cardiomyocyte, 0.3 μM, control after acidosis alone 100%, before acidosis 0%, mean ±SD, read-out: amplitude of the necrosis induced by the acidosis) amounted to 144%. Also, the activity at 1 µM in test [11] (Rattus norvegicus, Cardiomyocyte, 1 μM, control after acidosis alone 100%, mean ±SD, read-out: amplitude of the necrosis induced by the acidosis) came out at 21.9%. Also, the activity at 3 µM in test [11] (Rattus norvegicus, Cardiomyocyte, 3 μM, control after acidosis alone 100%, mean ±SD, read-out: amplitude of the necrosis induced by the acidosis) came out at 1.42%. Moreover, in [11] (Rattus norvegicus, Cardiomyocyte, 10 μM, control after acidosis alone 100%, mean ±SD, read-out: amplitude of the necrosis induced by the acidosis), the activity at 10 µM stood at 2.14%. Besides, the activity at 30 µM in test [11] (Rattus norvegicus, Cardiomyocyte, 30 μM, control after acidosis alone 100%, mean ±SD, read-out: amplitude of the necrosis induced by the acidosis) is 9.68%. For the same compound, the minimal effective concentration in test [11] (Rattus norvegicus, 1 μM and above, read-out: concentration at which protection occurs) was ≥ 1 µM. In addition, the “protection of cells with respect to intracellular acidosis (in words)” value in test [11] (in vitro) was “protects the cardiac cell from necrosis induced by intracellular acidosis”.
